{"source": "patent US20200138829A1", "about": "“METHODS OF CANCER TREATMENT” (Ferro Therapeutics, Inc., priority 2017, published 2020)", "key": {"Panc1 cells [1]": {"system": "Panc1 cells", "experiment": "Cell viability assay (CellTiter Glo), Panc1", "assay_type": "cell-based", "conditions": "Panc1 versus A549", "description": "(§1) Cell viability assay was performed to assess the potency of the ferroptosis inducer compounds in various cancer cell lines with K-Ras mutations. […] A series of 9 different concentrations of compound stocks (500×) were created by 3-fold serial dilution in DMSO. […] After 96 hours of incubation, 50 μL of CellTiter Glo reagent (Promega) was added to each well and luminescence was measured after 10 minutes using EnVision (PerkinElmer). […] IC50, relative IC50, or % of top inhibition was calculated. Next, RSL3, ML210, Erastin, and Auranofin were tested on additional K-RAS mutant pancreatic cell lines (Panc1, Panc6.03, Panc2.13, PSN-1, and Capan-1) in Table 1."}, "Capan-1 cells": {"system": "Capan-1 cells", "experiment": "Combination proliferation assay with PKC activator, Capan-1", "assay_type": "cell-based", "description": "(§2) Cell viability assay was performed to assess the potency of the ferroptosis inducer compounds in various cancer cell lines with K-Ras mutations. Cells at a density of 1,000-10,000 cells/well were seeded in 96-well plates and incubated at 37° C. overnight. A series of 9 different concentrations of compound stocks (500×) were created by 3-fold serial dilution in DMSO. These compounds were further diluted in culture media and then added to cells so that the final DMSO concentration was equal to 0.25% or less. After 96 hours of incubation, 50 μL of CellTiter Glo reagent (Promega) was added to each well and luminescence was measured after 10 minutes using EnVision (PerkinElmer). K101A (a PKC activator) was used as the reference compound titrated from top concentration of 30 μM. All compounds were tested initially from 30 μM as the top concentration in duplicates (range of 4.6 nM-30 μM). […] Data was analyzed using XL-fit software (ID Business Solutions Ltd.). IC50, relative IC50, or % of top inhibition was calculated.\n(§3) Therefore, whether PKC activators synergize or antagonize with ferroptosis inducers can be tested empirically."}, "KP-4 cells [2]": {"system": "KP-4 cells", "experiment": "Effect of ferroptosis or apoptosis inhibitor on RSL3- or Erastin-induced cell death, KP-4", "conditions": "Homo sapiens, KP-4, read-out: reduction of cell viability compared to DMSO", "description": "as §2\nFerroptosis inhibitors include: Ferrostatin-1 and Liproxstatin-1, inhibitors of ROS accumulation; Deferoxamine, an iron chelator; and PD146176, a 15-lipoxygenase inhibitor (see, e.g., Hofman et al., 2016, J Med Chem. March 10; 59(5):2041-53; Yang et al., 2016 Cell 26(3):165-176). The apoptosis inhibitor chosen was ZVAD (see, e.g. Wu et al., 2011, Cell Death and Differentiation 18:26-37). Ferroptosis inhibitors and ZVAD were first titrated as a single agent as shown in Example 1."}, "A549 cells [3]": {"system": "A549 cells", "experiment": "Effect of ferroptosis or apoptosis inhibitor on RSL3- or Erastin-induced cell death, A549", "conditions": "Homo sapiens, A549, read-out: reduction of cell viability compared to DMSO", "description": "as §2\nFerroptosis inhibitors include: Ferrostatin-1 and Liproxstatin-1, inhibitors of ROS accumulation; Deferoxamine, an iron chelator; and PD146176, a 15-lipoxygenase inhibitor (see, e.g., Hofman et al., 2016, J Med Chem. March 10; 59(5):2041-53; Yang et al., 2016 Cell 26(3):165-176). […]"}, "PSN-1 cells [4]": {"system": "PSN-1 cells", "experiment": "Combination proliferation assay with PKC activator, PSN-1", "assay_type": "cell-based", "description": "as §2, §3"}, "PSN-1 cells [5]": {"system": "PSN-1 cells", "experiment": "Cell viability assay (CellTiter Glo), PSN-1", "assay_type": "cell-based", "conditions": "PSN-1 versus A549", "description": "as §1"}, "KP-4 cells [6]": {"system": "KP-4 cells", "experiment": "Combination proliferation assay with PKC activator, KP-4", "assay_type": "cell-based", "description": "as §2, §3"}, "Panc1 cells [7]": {"system": "Panc1 cells", "experiment": "Combination proliferation assay with PKC activator, Panc1", "assay_type": "cell-based", "conditions": "inducer up to 1 μM", "description": "as §2, §3"}, "A549 cells [8]": {"system": "A549 cells", "experiment": "Combination proliferation assay with PKC activator, A549", "assay_type": "cell-based", "conditions": "inducer at concentration with minimal or no effect alone", "description": "as §2, §3"}, "[9]": {"system": "B cell lymphoma cell lines Mino and Namalwa", "experiment": "Cell viability assay, B cell lymphoma cell lines compared with A549", "assay_type": "cell-based", "conditions": "Mino and Namalwa versus A549", "description": "Cell viability assay was performed to assess the potency of the ferroptosis inducer compounds in various cancer cell lines with K-Ras mutations. […] A series of 9 different concentrations of compound stocks (500×) were created by 3-fold serial dilution in DMSO. […] After 96 hours of incubation, 50 μL of CellTiter Glo reagent (Promega) was added to each well and luminescence was measured after 10 minutes using EnVision (PerkinElmer). […] […] IC50, relative IC50, or % of top inhibition was calculated."}, "Panc2.13 cells": {"system": "Panc2.13 cells", "experiment": "Combination proliferation assay with PKC activator, Panc2.13", "assay_type": "cell-based", "description": "as §2, §3"}}, "data": [{"smiles": "CCOc1ccccc1-n1c(C(C)N2CCN(C(=O)COc3ccc(Cl)cc3)CC2)nc2ccccc2c1=O", "note": "(stereo not drawn) [Erastin]", "values": [{"measurement": "selectivity for induced cell death in comparison to A549", "setting": "Panc1 cells [1]", "result": "~2", "unit": "fold"}, {"measurement": "synergy with K101A or K102 to block proliferation", "setting": "Capan-1 cells", "result": "did not synergize"}, {"measurement": "cytotoxicity at 1 µM", "setting": "KP-4 cells [2]", "result": "> 90", "unit": "%"}, {"measurement": "cytotoxicity at 10 µM", "setting": "A549 cells [3]", "result": "50 to 60", "unit": "%"}, {"measurement": "synergy with K101A (PKC activators) to block proliferation", "setting": "PSN-1 cells [4]", "result": "synergized"}, {"measurement": "selectivity/sensitivity for induced cell death in comparison to A549", "setting": "PSN-1 cells [5]", "result": "~2", "unit": "fold"}, {"measurement": "synergy when combined with K101A or K102", "setting": "KP-4 cells [6]", "result": "only additive effects"}, {"measurement": "synergy with K101A or K102 to block proliferation", "setting": "Panc1 cells [7]", "result": "No synergistic effects"}, {"measurement": "synergy with K101A or K102 to block proliferation", "setting": "A549 cells [8]", "result": "synergized strongly"}, {"measurement": "sensitivity to induced cell death in comparison to A549", "setting": "[9]", "result": "not more sensitive"}, {"measurement": "effect on the potency of K101A or K102", "setting": "Panc2.13 cells", "result": "only increased the potency"}, {"measurement": "synergy with K101A or K102 to block proliferation", "setting": "Panc2.13 cells", "result": "synergized"}]}]}
